The values that follow come from publication PMC12152178 (Communications Medicine, 2025).

Data set [1] relates to human platelet-poor plasma, intrinsic pathway (aPTT). The data set can be described thus: Coagulation assay: activated partial thromboplastin time. In kind it is biochemical.
Data set [2] relates to murine C2C12 skeletal muscle myoblast cells. The data set is classed as cell-based. Particulars: for cytotoxicity of the inhibitor alone: 100 μM, C2C12 cells, no venom; for reduction of venom-induced cytotoxicity: GA, KL and MP venoms, SMI 0–100 μM.
Data set [3] concerns D. russelii venom proteases (SVMP). In words: Proteolytic activity of venom and its inhibition. The data set is classed as biochemical, Daboia russelii. Particulars: for pIC50: read-out: IC50 (inhibition of venom proteolytic activity).
The subject of data set [4] is D. russelii venom-induced lethality. The data set can be described thus: Preclinical efficacy: rescue experiments. Particulars: 24 h, n=5. The data set is classed as in vivo, mice.
For data set [5] the test system is unchanged. The data set can be described thus: Preclinical efficacy: preincubation model of envenoming. In kind it is in vivo, mice. The settings on record: for Percentage of survival: i.v., 24 h, n=5.
The next data set has as its system human fibrinogen. The data set can be described thus: Fibrinogenolytic activity of venom and its inhibition. In kind it is biochemical.
In data set [6] the test system is human platelet-poor plasma, extrinsic pathway (PT). In words: Coagulation assay: prothrombin time. In kind it is biochemical.
The mark [7] stands for this setting: KA and RJ venoms, SMI up to 100 µM (each).
Setting [8] is: TN, KL, GA and MH venoms, SMI 0–100 µM, concentration-dependent.
The mark [9] stands for this setting: TN, WB and RJ venoms, SMI 0–100 μM (each).
Where [10] appears, read: MP venom 2.5x LD50 i.p., SMI 120 µg/mouse (each) i.v. at 0 min.
Where [11] appears, read: KA venom 2.5x LD50 preincubated with SMI 60 µg/mouse.
Where [12] appears, read: PB venom 2.5x LD50 preincubated with SMI 60 µg/mouse.
The mark [13] stands for this setting: PB venom 2.5x LD50 preincubated with SMI 120 µg/mouse.
Setting [14] is: RJ venom 2.5x LD50 preincubated with SMI 60 µg/mouse.
[15] abbreviates: RJ venom, SMI 120 µg/mouse, venom alone mean 3 min.
[16] abbreviates: TN venom 2.5x LD50 preincubated with SMI 60 µg/mouse.
The mark [17] stands for this setting: WB venom 2.5x LD50 preincubated with SMI 60 µg/mouse.

pIC50: −log10 of the molar value. Like-named read-outs stand apart in the source and are kept apart here.

For orientation: pIC50 means the IC50 on a negative log10 scale, so that one unit is a factor of ten. With `CNC(=O)[C@@H](NC(=O)[C@H](CC(C)C)[C@H](O)C(=O)NO)C(C)(C)C` [marimastat, Marimastat], the “inhibition of venom-induced aPTT alterations” value in data set [1] (AP and MP venoms, SMI 0–100 µM) is “capable of inhibiting”; in data set [1] (setting [7]), “ineffective”; in data set [1] (PB and WB venoms, SMI up to 100 µM (each)), “failed to inhibit”. The “reversal of venom-induced aPTT alterations” value in data set [1] (setting [8]) was “reversed”. In data set [2], the “cytotoxicity of the inhibitor alone” value was “Neither inhibitor exhibited cytotoxicity”. Also, the “inhibition of venom-induced cytotoxicity” value in data set [2] (AP venom 50 µg/ml, SMI 0–100 µM) was 94.89%; in data set [2] (setting [9]), 41.20–70.51%. Also, the “reduction of venom-induced cytotoxicity” value in data set [2] is reported as 72.88–94.85%. In addition, the negative logarithm of the IC50 (pIC50) in data set [3] (GA (Goa) venom) was 5.63; in data set [3] (MP venom), 5.82; in data set [3] (RJ (Rajasthan) venom) it was 5.78. Further, the “% of survival” value in data set [4] (KA venom 2.5x LD50 i.p., SMI 120 µg/mouse i.v. at 0 min) is reported as 40%; in data set [4] (setting [10]), 40%; in data set [4] (PB venom 2.5x LD50 i.p., SMI 120 µg/mouse i.v. at 0 min) it was “ineffective”. Moreover, the Percentage of survival result was “sufficient to neutralise the lethal effects” in data set [5] (setting [11]); “failed to protect” in data set [5] (setting [12]); “complete protection” in data set [5] (setting [13]); “failed to protect” in data set [5] (setting [14]); “failed to protect” in data set [5] (setting [16]); “complete protection” in data set [5] (TN venom 2.5x LD50 preincubated with SMI 120 µg/mouse). The Percentage of survival result in data set [5] (setting [17]) was “failed to protect”. In data set [5] (RJ venom, SMI 120 µg/mouse), the “extension of survival time over venom alone” value (from here on “extension … over venom alone”) turned out to be 12 x. Moreover, in data set [5] (setting [15]), the “mean survival time of mice (onset of lethality)” value worked out at 36 min. In addition, the “protection against venom-induced fibrinogenolysis” value is listed as “very effective” in the data set with human fibrinogen (PB, KA, KL, AP, GA and RJ venoms, SMI 100 µM); “did not completely neutralise” in the data set on human fibrinogen (TN, MH, MP and WB venoms, SMI 100 µM (each)). In addition, the “inhibition of venom-induced PT alterations” value was “ineffective” in data set [6] (setting [7]); “failed to inhibit” in data set [6] (MP and AP venoms, SMI up to 100 µM (each)); “capable of inhibiting” in data set [6] (PB and WB venoms, SMI 0–100 µM). Besides, the “reversal of venom-induced PT alterations” value in data set [6] (setting [8]) is on record as “reversed”.
As for `N=C(N)c1ccc2cc(OC(=O)c3ccc(N=C(N)N)cc3)ccc2c1` [nafamostat, Nafamostat], in data set [3] (AP venom (Fig. S1), 0–100 µM), the “inhibition of the protease activity of D. russelii venom” value is listed as “failed to inhibit”. Moreover, the “extension … over venom alone” value in data set [5] (RJ venom, SMI 120 µg/mouse) was determined as 160 x. The “mean survival time of mice (onset of lethality)” value in data set [5] (setting [15]) is 480 min.
Regarding `CCc1c(C(=O)C(N)=O)c2c(OCC(=O)O)cccc2n1Cc1ccccc1` [varespladib, Varespladib], the “inhibition of venom-induced aPTT alterations” value in data set [1] (TN venom, 100 µM) is given as “failed to prevent coagulopathy”. Moreover, in data set [2], the “cytotoxicity of the inhibitor alone” value is “Neither inhibitor exhibited cytotoxicity”. Also, in data set [2], the “reduction of venom-induced cytotoxicity” value is recorded as 72.88–94.85%. Moreover, the “inhibition of venom-induced cytotoxicity” value in data set [2] (MH venom 50 µg/ml, SMI 0–100 µM) is listed as 88.67%; in data set [2] (PB venom 50 µg/ml, SMI 0–100 µM), 85.32%; in data set [2] (setting [9]) it was 41.20–70.51%. Besides, the “% of survival” value was 60% in data set [4] (setting [10]) and “complete protection” in data set [4] (PB venom 2.5x LD50 i.p., SMI 120 µg/mouse i.v. at 30 min). Also, the Percentage of survival entry in data set [5] (AP venom 2.5x LD50 preincubated 30 min with SMI 60 µg/mouse) is given as “failed to protect”; in data set [5] (AP venom 2.5x LD50 preincubated with SMI 120 µg/mouse) it was “failing to prevent lethality”; in data set [5] (setting [11]), “failed to protect”; in data set [5] (KA venom 2.5x LD50 preincubated with SMI 120 µg/mouse) it was “failing to prevent lethality”; in data set [5] (setting [12]), “failed to protect”; in data set [5] (PB venom 2.5x LD50 preincubated with SMI 90 µg/mouse), 80%. The Percentage of survival entry is reported as “complete protection” in data set [5] (setting [13]); 40% in data set [5] (setting [14]); 60% in data set [5] (RJ venom 2.5x LD50 preincubated with SMI 90 µg/mouse); “failed to protect” in data set [5] (setting [16]); “completely protected” in data set [5] (TN venom 2.5x LD50 preincubated with SMI 90 µg/mouse); 40% in data set [5] (setting [17]). In addition, the “extension … over venom alone” value in data set [5] (KA and AP venoms (both), SMI 120 µg/mouse) came to 13 x. In data set [5] (KA and AP venoms (both), SMI 120 µg/mouse, venom alone mean 3 min), the “mean survival time of mice” value was determined as 39 min. Also, the “inhibition of venom-induced PT alterations” value in data set [6] (TN venom, 100 µM) is recorded as “failed to prevent coagulopathy”.
